Consider 20 molecules from patent US8106055B2, “Substituted amide compounds” (Gruenenthal GmbH, priority 2007, dated 2012).

Test [1] deals with T1, serotonin (5-HT) reuptake (Rattus norvegicus, UniProt P31652).
T1 construct: synaptosomes are freshly isolated from areas of the rat brain; from tissue; host or cells: rat brain synaptosomes (P2 fraction)
In words: Inhibition of serotonin (5HT) reuptake in synaptosomes from rat brain. The conditions noted are these: test concentration of 10 μM; for inhibition at 10 µM: read-out: 5-HT (inhibition of reuptake of serotonin, % inhibition). Type of test: biochemical. The method, then:
Binding data of the compounds on the μ opioid receptor and data on the inhibition of reuptake of serotonin (5-HT) are given in Table 1. The data for the μ receptor were measured at a test concentration of 1 μM, and those for the serotonin reuptake at 10 μM. The values are stated in % inhibition.
Inhibition of Serotonin (5HT) Reuptake
In order to be able to carry out these in vitro studies, synaptosomes are freshly isolated from areas of the rat brain. In each case a so-called “P2” fraction prepared in accordance with the instructions of Gray and Whittaker (E. G. Gray and V. P. Whittaker (1962) J. Anat. 76, 79-88) is prepared. For the NA uptake, these vesicular particles are isolated from the hypothalamus of male rat brains.
A detailed description of the method can be found in the literature (M. Ch. Frink, H.-H. Hennies, W. Englberger, M. Haurand and B. Wilffert (1996) Arzneim.-Forsch./Drug Res. 46 (III), 11, 1029-1036).

The target of a further test is T2, human μ opiate receptor (Homo sapiens, UniProt P35372).
T2 construct: purchased PerkinElmer Life Sciences, Zaventem, Belgium RB-HOM; host or cells: CHO-K1 cells (membrane preparation)
The experiment in a line: Affinity for the human μ opiate receptor ([3H]-naloxone displacement, CHO-K1 receptor membrane preparation, SPA). In kind it is binding. Put shortly: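 CHO-K1 membranes expressing human μ receptor incubated 90 min at room temperature with 1 nmol/l [3H]-naloxone and WGA-SPA beads in 50 mmol/l Tris-HCl, 0.06% BSA; 100 μmol/l naloxone defines non-specific binding. Values are % inhibition of specific binding at 1 μM; IC50 converted to Ki by Cheng-Prusoff.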

The target in test [2] is T3, bradykinin 1 receptor (B1R) of the rat (Rattus norvegicus, UniProt P97583).
T3 construct: expressed in transfected cells; host or cells: CHO K1 cells
T3 sequence (P97583 1-337): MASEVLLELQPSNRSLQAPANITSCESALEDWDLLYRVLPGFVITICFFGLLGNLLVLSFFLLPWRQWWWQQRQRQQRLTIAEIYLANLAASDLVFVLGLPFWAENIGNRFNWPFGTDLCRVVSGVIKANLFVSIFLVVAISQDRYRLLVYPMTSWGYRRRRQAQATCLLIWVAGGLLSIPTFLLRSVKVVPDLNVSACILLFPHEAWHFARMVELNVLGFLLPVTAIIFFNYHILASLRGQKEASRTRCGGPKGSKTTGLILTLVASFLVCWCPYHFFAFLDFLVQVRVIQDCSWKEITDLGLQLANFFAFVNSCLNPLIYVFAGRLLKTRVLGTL
The experiment in a line: Functional investigation on the rat bradykinin 1 receptor (B1R), Ca2+ FLIPR assay in CHO K1 rB1R cells. Type of test: cell-based. The conditions noted are these: test substance 10 μM, Ca2+ FLIPR, CHO K1 rB1R cells; for B1R Ant. r [10 μM] % Inhibition: B1R antagonism rat; for inhibition at 10 µM: CHO-K1, B1R antagonism rat, read-out: B1R Ant. r [10 μM] % Inhibition. The method, boiled down: (§1)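 Stably transfected CHO K1 cells loaded with Fluo-4; FLIPR Ca2+ fluorescence peak (ex 488/em 540 nm). Compound added first (agonism vs Lys-Des-Arg9-bradykinin ≥50 nM human, Des-Arg9-bradykinin 10 μM rat), then after 10-20 min agonist at EC80; antagonism as % inhibition, IC50 from concentration series, n=2-3, N≥2.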

Test [3] has as its target T4, human bradykinin 1 receptor (B1R) (Homo sapiens, UniProt P46663).
T4 construct: expressed in transfected cells; host or cells: CHO K1 cells
T4 sequence (P46663 1-353): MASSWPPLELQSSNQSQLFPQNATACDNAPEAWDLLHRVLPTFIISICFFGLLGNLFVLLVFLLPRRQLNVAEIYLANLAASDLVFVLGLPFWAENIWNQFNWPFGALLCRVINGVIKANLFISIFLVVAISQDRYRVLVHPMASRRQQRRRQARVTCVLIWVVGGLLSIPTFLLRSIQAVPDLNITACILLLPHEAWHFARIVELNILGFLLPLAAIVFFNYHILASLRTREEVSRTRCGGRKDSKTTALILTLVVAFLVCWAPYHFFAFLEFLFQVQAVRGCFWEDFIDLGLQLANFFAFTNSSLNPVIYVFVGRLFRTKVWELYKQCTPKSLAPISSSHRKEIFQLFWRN
In words: Functional investigation on the human bradykinin 1 receptor (B1R), Ca2+ FLIPR assay in CHO K1 hB1R cells. In kind it is cell-based. To be noted: test substance 10 μM, Ca2+ FLIPR, CHO K1 hB1R cells; for B1R Ant. h [10 μM] % Inhibition: B1R antagonism human; for inhibition at 10 µM: CHO-K1, B1R antagonism human, read-out: B1R Ant. h [10 μM] % Inhibition. The method, boiled down:
as §1

Where [4] appears, read: 1.5 h, Table 3, to be read in the same way as Table 1, test concentration 1 μM, read-out: μ.

Where two headings read alike, the source gives them in different places.

T2 sequence (P35372 whole entry): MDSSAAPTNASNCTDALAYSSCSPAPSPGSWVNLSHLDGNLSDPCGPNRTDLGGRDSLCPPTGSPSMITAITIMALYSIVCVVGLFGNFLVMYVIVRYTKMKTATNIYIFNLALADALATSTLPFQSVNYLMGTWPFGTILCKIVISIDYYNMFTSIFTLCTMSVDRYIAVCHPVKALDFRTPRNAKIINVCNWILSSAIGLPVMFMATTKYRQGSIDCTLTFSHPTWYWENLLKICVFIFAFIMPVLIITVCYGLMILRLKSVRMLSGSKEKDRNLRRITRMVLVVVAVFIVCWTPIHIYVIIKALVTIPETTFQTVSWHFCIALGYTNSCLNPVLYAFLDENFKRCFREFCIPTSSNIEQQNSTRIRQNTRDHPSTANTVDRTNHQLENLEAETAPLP
T1 sequence (P31652 whole entry): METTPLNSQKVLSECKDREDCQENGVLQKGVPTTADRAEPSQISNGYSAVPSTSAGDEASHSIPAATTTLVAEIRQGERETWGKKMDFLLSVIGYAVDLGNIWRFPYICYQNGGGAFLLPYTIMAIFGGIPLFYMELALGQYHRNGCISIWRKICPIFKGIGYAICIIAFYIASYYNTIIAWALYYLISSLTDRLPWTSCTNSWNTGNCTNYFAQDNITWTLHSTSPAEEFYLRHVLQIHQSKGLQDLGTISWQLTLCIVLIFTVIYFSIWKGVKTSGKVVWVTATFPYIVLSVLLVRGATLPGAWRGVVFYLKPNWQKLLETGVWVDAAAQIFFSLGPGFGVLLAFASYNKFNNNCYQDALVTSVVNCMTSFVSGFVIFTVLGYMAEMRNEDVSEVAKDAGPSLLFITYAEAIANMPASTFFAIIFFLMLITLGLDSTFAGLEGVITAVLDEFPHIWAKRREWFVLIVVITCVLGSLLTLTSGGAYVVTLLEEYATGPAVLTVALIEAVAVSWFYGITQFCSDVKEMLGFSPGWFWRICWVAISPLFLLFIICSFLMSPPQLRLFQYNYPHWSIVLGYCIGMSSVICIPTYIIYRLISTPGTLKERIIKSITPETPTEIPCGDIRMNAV

As for `CC(Oc1ccccc1)C(=O)NCC1CCC(C(c2ccc(Cl)cc2)N(C)C)CC1` (single isomer, unassigned) [Example 238], in test [1] (10 µM), the “5-HT (inhibition of reuptake of serotonin, % inhibition)” value is listed as 38%. In addition, the “μ (binding on the μ opioid receptor, % inhibition)” value on human μ opiate receptor (test concentration of 1 μM) was 81%.
Regarding `CC(Oc1ccccc1)C(=O)NCC1CCC(C(c2cccc(F)c2)N(C)C)CC1` (stereo not drawn) [Example 79, N-((4-((dimethylamino)(3-fluorophenyl)methyl)cyclohexyl)methyl)-2-phenoxypropanamide], in test [1] (10 µM), the “5-HT (inhibition of reuptake of serotonin, % inhibition)” value came to 64%.
In the case of `CC(Oc1ccccc1)C(=O)NCC1CCC(C(c2cccc(F)c2)N(C)C)CC1` (stereo not drawn) [Example 108, N-((4-((dimethylamino)(3-fluorophenyl)methyl)cyclohexyl)methyl)-2-phenoxypropanamide], the inhibition at 10 µM in test [1] turned out to be 63%. Also, the inhibition at 1 µM at human μ opiate receptor (test concentration of 1 μM, read-out: μ (binding on the μ opioid receptor, % inhibition)) was 91%.
For `CC(=O)OC(C(=O)NCC1CCC(C(c2ccc(Cl)cc2)N(C)C)CC1)c1ccccc1` (stereo not drawn) [Example 360], the “5-HT (inhibition of reuptake of serotonin, % inhibition)” value in test [1] was found to be 15%. Moreover, the “μ (binding on the μ opioid receptor, % inhibition)” value on human μ opiate receptor (test concentration of 1 μM) amounted to 66%.
In the case of `CN(C)C(c1ccccc1)C1CCC(CCNC(=O)COCc2ccccc2)CC1` (stereo not drawn) [Example 134, 2-(benzyloxy)-N-(2-(4-((dimethylamino)(phenyl)-methyl)cyclohexyl)ethyl)acetamide], the inhibition at 10 µM in test [1] was found to be 67%.
Still for that read-out and setting: the figure for `CC(Oc1ccccc1)C(=O)NC1CCC(C(c2ccccc2)N(C)C)CC1` (stereo not drawn) [Example 181, N-(4-((dimethylamino)(phenyl)methyl)cyclohexyl)-2-phenoxypropanamide] is 46%.
Take `CN(C)C(c1cccc(F)c1)C1CCC(NC(=O)COCc2ccccc2)CC1` (stereo not drawn) [Example 353]: the “5-HT (inhibition of reuptake of serotonin, % inhibition)” value in test [1] is reported as 60%. Besides, at human μ opiate receptor (test concentration of 1 μM), the “μ (binding on the μ opioid receptor, % inhibition)” value came to 67%.
Regarding `CC(Oc1ccccc1)C(=O)NCC1CCC(C(c2ccccc2)N(C)C)CC1` (stereo not drawn) [Example 50, N-((4-((dimethylamino)(phenyl)methyl)cyclohexyl)methyl)-2-phenoxypropanamide], in test [1], the inhibition at 10 µM was 65%.
On the same count and under the same terms, the figure for `CC(Oc1ccccc1)C(=O)NC1CCC(C(c2cccc(F)c2)N(C)C)CC1` (stereo not drawn) [Example 153, N-(4-((dimethylamino)(3-fluorophenyl)methyl)cyclohexyl)-2-phenoxypropanamide] is 27%.
Regarding `CC(Oc1ccccc1)C(=O)NCC1CCC(C(c2cccs2)N(C)C)CC1` (stereo not drawn) [Example 2, N-((4-((dimethylamino)(thiophen-2-yl)methyl)cyclohexyl)methyl)-2-phenoxypropanamide], in test [1], the inhibition at 10 µM is 69%.
For the molecule `CC(Oc1ccccc1)C(=O)NCC1CCC(C(c2cccc(F)c2)N(C)C)CC1` (stereo not drawn) [Example 122, N-((4-((dimethylamino)(3-fluorophenyl)methyl)cyclohexyl)methyl)-2-phenoxypropanamide], the “5-HT (inhibition of reuptake of serotonin, % inhibition)” value in test [1] (10 µM) amounted to 57%.
Take “N-((4-(morpholino(phenyl)methyl)cyclohexyl)methyl)-2-((1-(2,4,6-trichlorophenylsulfonyl)piperidin-3-yl)methoxy)acetamide [Example 713]”: the “B1R Ant. r [10 μM] % Inhibition” value in test [2] was 16%. Further, in test [3], the “B1R Ant. h [10 μM] % Inhibition” value is given as −15%. In addition, the μ on human μ opiate receptor (Table 3, to be read in the same way as Table 1, test concentration 1 μM) is 14 % inhibition.
For the molecule `CN(CCOCC(=O)NC1CCC(C(c2ccccc2)N2CCOCC2)CC1)S(=O)(=O)c1c(Cl)cc(Cl)cc1Cl` (stereo not drawn) [Example 638, N-(4-(morpholino(phenyl)methyl)cyclohexyl)-2-(2-(2,4,6-trichloro-N-methylphenylsulfonamido)ethoxy)acetamide], the “B1R Ant. r [10 μM] % Inhibition” value in test [2] worked out at 21%. For the same molecule, the “B1R Ant. h [10 μM] % Inhibition” value in test [3] came to 37%. Besides, the inhibition at 1 µM at human μ opiate receptor (setting [4]) was 2%.
Turning to `COc1cc(C)c(S(=O)(=O)N2CCCC(OCC(=O)NC3CCC(C(c4ccccc4)N4CCN(C)CC4)CC3)C2)c(C)c1` (stereo not drawn) [Example 708, 2-(1-(4-methoxy-2,6-dimethylphenylsulfonyl)piperidin-3-yloxy)-N-(4-((4-methylpiperazin-1-yl)(phenyl)methyl)cyclohexyl)acetamide], the inhibition at 10 µM came to 91% in test [2] and 100% in test [3]. Further, the inhibition at 1 µM on human μ opiate receptor (setting [4]) came out at 29%.
The like results for `COc1cc(C)c(S(=O)(=O)N2CCCC(COCC(=O)NCC3CCC(C(CCc4ccccc4)N4CCOCC4)CC3)C2)c(C)c1` (stereo not drawn) [Example 756, 2-((1-(4-methoxy-2,6-dimethylphenylsulfonyl)piperidin-3-yl)methoxy)-N-((4-(1-morpholino-3-phenylpropyl)cyclohexyl)methyl)acetamide] were, in that order, 43%, 64% and 5%.
Taken in the same sequence, the figures for `COc1cc(C)c(S(=O)(=O)N2CCCC(COCC(=O)NC3CCC(C(c4ccccc4)N4CCOCC4)CC3)C2)c(C)c1` (stereo not drawn) [Example 701, 2-((1-(4-methoxy-2,6-dimethylphenylsulfonyl)piperidin-3-yl)methoxy)-N-(4-(morpholino(phenyl)methyl)cyclohexyl)acetamide] were 49%, 16% and 2%.
On to `COc1cc(C)c(S(=O)(=O)N(C)CCOCC(=O)NCC2CCC(C(CCc3ccccc3)N3CCOCC3)CC2)c(C)c1` (stereo not drawn) [Example 719, 2-(2-(4-methoxy-N,2,6-trimethylphenylsulfonamido)ethoxy)-N-((4-(1-morpholino-3-phenylpropyl)cyclohexyl)methyl)acetamide], for which the values for the inhibition at 10 µM in test [2] and in test [3] were 101% and 103%, respectively. In addition, at human μ opiate receptor (setting [4]), the inhibition at 1 µM worked out at 6%.
Taken in the same sequence, the figures for `COc1cc(C)c(S(=O)(=O)N2CCCC(OCC(=O)NC3CCC(C(CCc4ccccc4)N4CCCCC4)CC3)C2)c(C)c1` (stereo not drawn) [Example 675, 2-(1-(4-methoxy-2,6-dimethylphenylsulfonyl)piperidin-3-yloxy)-N-(4-(3-phenyl-1-(piperidin-1-yl)propyl)cyclohexyl)acetamide] were 89%, 97% and 37%.
The like results for `COc1cc(C)c(S(=O)(=O)N2CCCC2COCC(=O)NC2CCC(C(c3ccccc3)N3CCCC3)CC2)c(C)c1` (stereo not drawn) [Example 632, 2-((1-(4-methoxy-2,6-dimethylphenylsulfonyl)pyrrolidin-2-yl)methoxy)-N-(4-(phenyl(pyrrolidin-1-yl)methyl)cyclohexyl)acetamide] were, in that order, 75%, 105% and 68%.
The like results for `O=C(COCC1CCCN(S(=O)(=O)c2c(Cl)cc(Cl)cc2Cl)C1)NC1CCC(C(c2ccccc2)N2CCOCC2)CC1` (stereo not drawn) [Example 703, N-(4-(morpholino(phenyl)methyl)cyclohexyl)-2-((1-(2,4,6-trichlorophenylsulfonyl)piperidin-3-yl)methoxy)acetamide] were, in that order, 37%, -4% and 19%.
